Data set [1] deals with Eicosanoid Production in Human Whole Blood. In words: Inhibition of eicosanoid production following calcium ionophore stimulation in human whole blood. It is filed as cell-based. As to conditions: human blood stimulated with calcium ionophore. The method, then: The eicosanoids, which include the 5-lipoxygenase products LTB , transLTB₄, 20-hydroxyLTB₄, 5-HETE, and the 12-lipoxygenase product are extracted from the whole blood following A23187 calcium ionophore stimulation. The extracts are separated by reverse phase high pressure liquid chromatography and quantified by absorbance methods.
Venous human blood is collected into polypropylene tubes containing 1% heparin. The blood is then aliquoted into 4.5 ml volumes and preincubated at 37°C for 10 minutes in polypropylene tubes (15 ml size). Compound or carrier (50 »L dimethylsulfoxide) is added 5 minutes prior to stimulation. Calcium ionophore (0.5ml) is added, and the blood incubated for 10 minutes. Prostaglancin B₂(1 nmole) is added, and the blood extracted as described below.
The samples are centrifuged at 1000xg for 15 minutes at 5°C. The plasma is collected, and one volume of methanol is added to the plasma. This suspension is then centrifuged at 1000xg for ten minutes at 5°C. The supernatant is collected and diluted with 1.5 volumes of chilled aqueous 1% formic acid: 1% triethylamine. This mixture is loaded onto a preconditioned J.T. Baker C18 SPE cartridge (Phillipsburg, NJ) at a flow rate of 1-2 ml/minute. (The cartridge is preconditioned according to manufacture's recommendations.) The absorbed sample is washed in the following order with three (3) ml each of (i) aqueous 1% formic acid: 1% triethylamine; (ii) petroleium ether; and (iii) 20% acetonitrile: 1% triethylamine.
The eicosanoids are eluted in 3ml of 70% acetonitrile: 1% triethylamine. The solvent is removed under vacuum. The sample is resuspended in 200»L of 50% methanol buffered with ammonium acetate.
The sample (175 »l) is loaded into a WATERS (Milbord, MA) RCM NOVA PAK C18 (100x8mm) column with the starting mobile phase of 90% A (A = 10% acetonitrile buffered with 30mM ammonium acetate to pH6.8) and 10% B (B = 90% acetonitrile buffered with 30mM ammonium acetate to pH6.8). The flow rate for the separation is 2.5ml/minute. At one minute the %B is increased to 27% in a step fashion. By 12 minutes the %B has increased in a concave hyperbolic function (curve 9) to 40% and increases in a linear manner to 60% by 22 minutes. Under these developing conditions, the retention times for the eicosanoids are: 20-hydroxyLTB₄, 4.6 minutes; transLTB₄, 10 minutes; LTB₄, 10.5 minutes; 12-HETE, 10.4 minutes; 5-HETE, 21 minutes. The HPLC system consisted of WATERS 510 pumps, 840 controller, WISP injector and 990 detector.
The eicosanoids in the samples are verified by their retention times and their UV absorbance spectra. The peaks are quantified with reference to the internal standard and their absorbance response at their maximum absorbance wavelength.

For a further data set, the system named is cynomolgus monkeys. Kind of data set: CNS activity / oral toxicity in cynomolgus monkeys. As to conditions: cynomolgus monkey, in vivo. The method, then:
Additional monkeys tolerated repeated doses of 45 mg/kg or 30 mg/kg and one animal tolerated an escalating dose schedule of 30-90-120 mg/kg.
The two monkeys administered 400 mg/kg were repeatedly administered this dose for 7 consecutive days; each animal experienced emesis within 1 to 5 hours of dosing after the 1st, 3rd and 4th doses, whereas only the female experienced emesis after the 5th, 6th and 7th doses. A complete necropsy, serum clinical chemistry, hematology and histological examination was completed on both monkeys.

Data set [2] deals with arachidonic acid-induced edema in mice. Kind of data set: Arachidonic acid-induced mouse ear inflammation (ear swelling). It is filed as in vivo, male Balb/c mice. As to conditions: 1 h, 50 mg/kg s.c. or i.p., ear thickness one hour after 2 mg arachidonic acid.
A short description of data set [3]: In vivo metabolism (statement only).
Where [4] appears, read: 5-HETE, read-out: 5-LO, IC50 (uM) 5-HETE.
Where [5] appears, read: 12-HETE, read-out: 5-LO, IC50 (uM) 12-HETE.
Setting [6] is: LTB4, read-out: 5-LO, IC50 (uM) LTB4.
The mark [7] stands for this setting: tLTB4, read-out: 5-LO, IC50 (uM) tLTB4.

Like-named read-outs stand apart in the source and are kept apart here.

By IC50 is commonly meant the concentration needed to halve the response being measured. What is called inhibition is the share of the control response that was lost under treatment.

As for `CSc1ccc(-c2nc3n(c2-c2ccncc2)CCC3)cc1` [Compound 1, 2-(4-Methylthiophenyl)-3-(4-pyridyl)-6,7-dihydro-[5H]-pyrrolo[1,2-a]imidazole], the IC50 in data set [1] (setting [4]) is 30 µM; in data set [1] (setting [5]), 60 µM; in data set [1] (20-OH-LTR4, read-out: 5-LO, IC50 (uM) 20-OH-LTR4), 30 µM; in data set [1] (setting [6]) it was 30 µM; in data set [1] (setting [7]), 30 µM. Besides, the “Adverse CNS activity” value in the data set with cynomolgus monkeys was “+”. The “CNS toxicity / adverse CNS effects (comparative statement)” value with cynomolgus monkeys was “less CNS toxicity than prior art compound A”. For the same compound, the inhibition at 50 mg/kg in data set [2] is 62%.
With `C[S+]([O-])c1ccc(-c2nc3n(c2-c2ccncc2)CCC3)cc1` (stereo not shown) [Compound 2, 2-(4-Methylsulfinylphenyl)-3-(4-pyridyl)-6,7-dihydro-[5H]-pyrrolo[1,2-a]imidazole], the IC50 in data set [1] (setting [4]), in data set [1] (setting [5]), in data set [1] (setting [6]) and in data set [1] (setting [7]) was 80 µM in each case. Also, the metabolism in vivo result in data set [3] is “metabolized in vivo to compound D”.

These data come from patent EP0306300B1, “Pyrrolo(1,2-a)imidazole and imidazo(1,2-a)pyridine derivatives and their use as 5-lipoxygenase pathway inhibitors” (SMITHKLINE BEECHAM CORPORATION, priority 1987, dated 1989).
